Converted amounts (≈) assume the structure as drawn.
System: Enterococcus faecium
Test: Minimum inhibitory concentration against vancomycin-resistant Enterococcus faecium (VRE)
Type: functional
Conditions: not given

| Structure (SMILES) | MIC [µg/mL] |
| --- | --- |
| NCc1cc(-c2c[nH]c3ccc(Br)cc23)nc2cc(Cl)ccc12 | 1.56 (≈ 4.03 µM) |
| Clc1ccc2c(c1)[C@H]1NCC[C@H]1[C@H](c1c[nH]c3ccc(Cl)cc13)N2 | > 25 |
| Clc1ccc2c(c1)[C@H]1NCC[C@H]1[C@@H](c1c[nH]c3ccc(Cl)cc13)N2 | > 25 |
| Clc1ccc2ccc(-c3c[nH]c4ccc(Br)cc34)nc2c1 | > 25 |

System: Staphylococcus aureus
Test: Minimum inhibitory concentration against methicillin-resistant Staphylococcus aureus
Type: functional
Conditions: not given

| Structure (SMILES) | MIC [µg/mL] |
| --- | --- |
| Clc1ccc2c(c1)[C@H]1OCC[C@H]1[C@@H](c1c[nH]c3ccc(Br)cc13)N2 (stereo in doubt; 9) | 3.13 (≈ 7.75 µM) |
| Clc1ccc2c(c1)[C@H]1OCC[C@H]1[C@@H](c1c[nH]c3ccc(Br)cc13)N2 (stereo in doubt) | 0.31 (≈ 0.768 µM) |

Same assay, conditions: Staphylococcus aureus; read-out: MIC

| Structure (SMILES) | MIC [µg/mL] |
| --- | --- |
| CC(C)(C)OC(=O)N1CC[C@H]2[C@@H](c3c[nH]c4ccc(Br)cc34)Nc3ccc(Cl)cc3[C@H]21 | 0.78 (≈ 1.55 µM) |
| Fc1ccc2c([C@@H]3Nc4ccc(Cl)cc4[C@H]4OCC[C@H]43)c[nH]c2c1 | 12.5 (≈ 36.5 µM) |
| Fc1cccc2c1N[C@H](c1c[nH]c3ccc(Br)cc13)[C@@H]1CCO[C@H]21 | 0.78 (≈ 2.01 µM) |
| NCc1cc(-c2c[nH]c3ccc(Br)cc23)nc2cc(Cl)ccc12 | 0.78 (≈ 2.02 µM) |
| CN1c2ccc(Cl)cc2[C@H]2OCC[C@H]2[C@H]1c1c[nH]c2ccc(Br)cc12 | > 25 |
| Clc1ccc2c(c1)[C@H]1OCC[C@H]1[C@H](c1c[nH]c3ccc(Br)cc13)N2 | 3.13 (≈ 7.76 µM) |
| Brc1ccc2[nH]cc([C@H]3Nc4ccc(C#CCN5CCCCC5)cc4[C@H]4OCC[C@@H]34)c2c1 | 1.56 (≈ 3.18 µM) |
| Fc1ccc2c(c1)[C@H]1OCC[C@H]1[C@@H](c1c[nH]c3ccc(Br)cc13)N2 | 6.25 (≈ 16.1 µM) |
| Clc1ccc2c(c1)[C@H]1OCC[C@H]1[C@@H](c1c[nH]c3ccc(Cl)cc13)N2 | 0.78 (≈ 2.17 µM) |
| Clc1ccc2c(c1)N(Cl)[C@H](c1c[nH]c3ccc(Br)cc13)[C@@H]1CCO[C@H]21 | 1.56 (≈ 3.56 µM) |
| OCC#Cc1ccc2c(c1)[C@H]1OCC[C@H]1[C@@H](c1c[nH]c3ccc(Br)cc13)N2 | 3.13 (≈ 7.39 µM) |
| Brc1ccc2[nH]cc([C@H]3Nc4c(I)cccc4[C@H]4OCC[C@@H]34)c2c1 | < 0.39 |
| Clc1ccc2c(c1)[C@H]1NCC[C@H]1[C@H](c1c[nH]c3ccc(Cl)cc13)N2 | 6.25 (≈ 17.4 µM) |
| Clc1ccc2c(c1)[C@H]1OCC[C@H]1[C@H](c1c[nH]c3ccccc13)N2 | 6.25 (≈ 19.2 µM) |
| FC(F)(F)c1cccc2c1N[C@H](c1c[nH]c3ccc(Br)cc13)[C@@H]1CCO[C@H]21 | 0.78 (≈ 1.78 µM) |
| COc1cccc2c1N[C@H](c1c[nH]c3ccc(Br)cc13)[C@@H]1CCO[C@H]21 | 1.56 (≈ 3.91 µM) |
| Clc1ccc2c(c1)[C@H]1NCC[C@H]1[C@@H](c1c[nH]c3ccc(Cl)cc13)N2 | 3.13 (≈ 8.74 µM) |
| Clc1cc(Cl)c2c(c1)[C@H]1OCC[C@H]1[C@@H](c1c[nH]c3ccc(Br)cc13)N2 | 1.56 (≈ 3.56 µM) |
| Clc1ccc2c(c1)[C@H]1OCC[C@H]1[C@H](c1c[nH]c3ccc(Cl)cc13)N2 | 3.13 (≈ 8.71 µM) |
| CC(C)(C)OC(=O)N1CC[C@@H]2[C@H]1c1cc(Cl)ccc1N[C@H]2c1c[nH]c2ccc(Br)cc12 | 1.56 (≈ 3.1 µM) |
| Clc1ccc2ccc(-c3c[nH]c4ccc(Br)cc34)nc2c1 | 0.6 (≈ 1.68 µM) |
| Fc1ccc2c([C@H]3Nc4ccc(Cl)cc4[C@H]4OCC[C@@H]34)c[nH]c2c1 | 6.25 (≈ 18.2 µM) |
| Brc1ccc2[nH]cc([C@H]3Nc4ccc(CCCN5CCCCC5)cc4[C@H]4OCC[C@@H]34)c2c1 | 12.5 (≈ 25.3 µM) |
| Cc1[nH]c2ccccc2c1[C@H]1Nc2ccc(Cl)cc2[C@H]2OCC[C@@H]12 | > 25 |
| Clc1ccc2c(c1)[C@H]1OCC[C@H]1[C@@H](c1c[nH]c3ccccc13)N2 | > 25 |

Reference: ChEMBL document CHEMBL1135361, “Potent in vitro methicillin-resistant Staphylococcus aureus activity of 2-(1H-indol-3-yl)tetrahydroquinoline derivatives” (2002)
